EC50 and IC50 data for 23 compounds are collected here from patent US10344025B2, “GLS1 inhibitors for treating disease” (Board of Regents, The University of Texas System, priority 2014, dated 2019).

Read-outs that look alike come from different tables or passages of the source. Where only a bound is given, the exact number is not on record here.

The test system of one assay is A549 cells. As to the kind of experiment: Proliferation Assay (A549 viability, Cell Titer Fluor, 72 hours). Type of assay: cell-based. In outline: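 Cell Titer Fluor fluorescence after 72 h compound treatment (0.5% DMSO, 37 °C, 5% CO2) of A549 cells plated 24 h earlier at 1000/well. Four-parameter logistic fitting gave IC50.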
For assay [1], the target named is purified recombinant human GAC (GLS1) (Homo sapiens (Human), UniProt O94925). The assay can be described thus: GLS1 Enzymatic Activity Assay (dual-coupled enzymatic assay, resorufin/Amplex UltraRed readout).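 Also: glutamate from GAC coupled via glutamate oxidase and peroxidase to resorufin, read as fluorescence (ex 530, em 590 nm) kinetically or at 20 min, four-parameter logistic IC50 fit.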 Type of assay: biochemical.
purified recombinant human GAC (GLS1), sequence (O94925 other isoform, or with tags, fused parts or gaps): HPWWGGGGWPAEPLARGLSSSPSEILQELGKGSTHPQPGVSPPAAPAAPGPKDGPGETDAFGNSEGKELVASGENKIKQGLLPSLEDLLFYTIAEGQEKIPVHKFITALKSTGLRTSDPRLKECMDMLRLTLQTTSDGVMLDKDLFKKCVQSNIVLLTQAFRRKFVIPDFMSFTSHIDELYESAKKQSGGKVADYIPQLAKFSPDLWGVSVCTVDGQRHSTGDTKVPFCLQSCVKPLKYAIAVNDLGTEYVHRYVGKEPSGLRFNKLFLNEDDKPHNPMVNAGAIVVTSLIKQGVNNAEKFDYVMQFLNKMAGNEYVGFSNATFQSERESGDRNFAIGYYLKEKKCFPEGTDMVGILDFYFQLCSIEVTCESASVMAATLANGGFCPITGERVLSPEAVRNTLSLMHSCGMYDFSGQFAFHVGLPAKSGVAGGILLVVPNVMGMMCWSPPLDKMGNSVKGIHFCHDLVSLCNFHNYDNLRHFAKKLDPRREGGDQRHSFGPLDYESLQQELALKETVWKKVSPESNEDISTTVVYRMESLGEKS

One may read the EC50 as the midpoint of the concentration-response curve. A low value points to an effect from little substance. As a reminder, the IC50 is the point on the concentration scale where inhibition reaches its midpoint. As for `O=C(NCc1cccc(OC(F)(F)F)c1)c1cn(CCCCn2cc(C(=O)NCC3CC4CCC3O4)nn2)nn1` (stereo not shown) [Example 116, N-{7-oxabicyclo[2.2.1]heptan-2-ylmethyl}-1-{4-[4-({[3-(trifluoromethoxy)phenyl]methyl}carbamoyl)-1H-1,2,3-triazol-1-yl]butyl}-1H-1,2,3-triazole-4-carboxamide], the EC50 in the assay on A549 cells is 100 to 500 nM. For the same compound, in assay [1], the IC50 is less than 100 nM.
In turn, `O=C(NCc1cccc(OC(F)(F)F)c1)c1cn(CCCCn2cc(C(=O)NCC3CCCOC3)nn2)nn1` (stereo not shown) [Example 117, N-(oxan-3-ylmethyl)-1-{4-[4-({[3-(trifluoromethoxy)phenyl]methyl}carbamoyl)-1H-1,2,3-triazol-1-yl]butyl}-1H-1,2,3-triazole-4-carboxamide] yielded an EC50 in the assay on A549 cells (Homo sapiens, A549, 72 h) of 100 to 500 nM. The IC50 in assay [1] is 100 to 500 nM.
In turn, `O=C(NCc1cccc(OC(F)(F)F)c1)c1cn(CCCCn2cc(C(=O)NCC3CCCCO3)nn2)nn1` (stereo not shown) [Example 118, N-(oxan-2-ylmethyl)-1-{4-[4-({[3-(trifluoromethoxy)phenyl]methyl}carbamoyl)-1H-1,2,3-triazol-1-yl]butyl}-1H-1,2,3-triazole-4-carboxamide] returned an EC50 with A549 cells (Homo sapiens, A549, 72 h) of 100 to 500 nM. Besides, in assay [1], the IC50 is 100 to 500 nM.
Turning to `O=C(NCc1cccc(C(F)(F)F)c1)c1cn(CCCCn2cc(C(=O)NCC3CCCOC3)nn2)nn1` (stereo not shown) [Example 119, N-(oxan-3-ylmethyl)-1-{4-[4-({[3-(trifluoromethyl)phenyl]methyl}carbamoyl)-1H-1,2,3-triazol-1-yl]butyl}-1H-1,2,3-triazole-4-carboxamide], the EC50 in the assay with A549 cells (Homo sapiens, A549, 72 h) was 100 to 500 nM. Further, in assay [1], the 50% inhibitory concentration (IC50) lay in the range of 100 to 500 nM.
In turn, `O=C(NCc1cccc(C(F)(F)F)c1)c1cn(CCCCn2cc(C(=O)NCC3CCOCC3)nn2)nn1` [Example 120, N-(oxan-4-ylmethyl)-1-{4-[4-({[3-(trifluoromethyl)phenyl]methyl}carbamoyl)-1H-1,2,3-triazol-1-yl]butyl}-1H-1,2,3-triazole-4-carboxamide] displayed an EC50 with A549 cells (Homo sapiens, A549, 72 h) of 500 to 5000 nM. The IC50 in assay [1] was 100 to 500 nM.
For `O=C(NCc1cccc(C(F)(F)F)c1)c1cn(CCCCn2cc(C(=O)NCC3CCCCO3)nn2)nn1` (stereo not shown) [Example 121, N-(oxan-2-ylmethyl)-1-{4-[4-({[3-(trifluoromethyl)phenyl]methyl}carbamoyl)-1H-1,2,3-triazol-1-yl]butyl}-1H-1,2,3-triazole-4-carboxamide] the same measures were 100 to 500 nM and 100 to 500 nM.
For `O=C(NCc1cccc(OC(F)(F)F)c1)c1cn(CCCCn2cc(C(=O)NCc3ccnc(C(F)(F)F)c3)nn2)nn1` [Example 122, 1-{4-[4-({[3-(trifluoromethoxy)phenyl]methyl}carbamoyl)-1H-1,2,3-triazol-1-yl]butyl}-N-{[2-(trifluoromethyl)pyridin-4-yl]methyl}-1H-1,2,3-triazole-4-carboxamide], in that order: less than 100 nM and less than 100 nM.
Turning to `CC(C)(O)c1ccc(CNC(=O)c2cn(CCCCn3cc(C(=O)NCc4cccc(C5CC5)c4)nn3)nn2)cn1` [Example 123, N-[(3-cyclopropylphenyl)methyl]-1-{4-[4-({[6-(2-hydroxypropan-2-yl)pyridin-3-yl]methyl}carbamoyl)-1H-1,2,3-triazol-1-yl]butyl}-1H-1,2,3-triazole-4-carboxamide], the EC50 in the assay on A549 cells (Homo sapiens, A549, 72 h) was in the range of 100 to 500 nM. The IC50 in assay [1] is less than 100 nM.
For `O=C(NCc1cccc(N2CCCC2)c1)c1cn(CCCCn2cc(C(=O)NCc3cc(C(F)(F)F)ccn3)nn2)nn1` [Example 124, 1-{4-[4-({[3-(pyrrolidin-1-yl)phenyl]methyl}carbamoyl)-1H-1,2,3-triazol-1-yl]butyl}-N-{[4-(trifluoromethyl)pyridin-2-yl]methyl}-1H-1,2,3-triazole-4-carboxamide] the same measures were less than 100 nM and less than 100 nM.
For `COCCOc1cccc(CNC(=O)c2cn(CCCCn3cc(C(=O)NCc4cc(C(F)(F)F)ccn4)nn3)nn2)c1` [Example 125, 1-{4-[4-({[3-(2-methoxyethoxy)phenyl]methyl}carbamoyl)-1H-1,2,3-triazol-1-yl]butyl}-N-{[4-(trifluoromethyl)pyridin-2-yl]methyl}-1H-1,2,3-triazole-4-carboxamide], in that order: 100 to 500 nM and less than 100 nM.
In turn, `O=C(NCc1cccc(OC(F)(F)F)c1)c1cn(CCCCn2cc(C(=O)NCc3cnccn3)nn2)nn1` [Example 126, N-(pyrazin-2-ylmethyl)-1-{4-[4-({[3-(trifluoromethoxy)phenyl]methyl}carbamoyl)-1H-1,2,3-triazol-1-yl]butyl}-1H-1,2,3-triazole-4-carboxamide] registered an EC50 in the assay on A549 cells (Homo sapiens, A549, 72 h) of 100 to 500 nM. For the same compound, the half-maximal inhibitory concentration (IC50) in assay [1] is 100 to 500 nM.
As to `O=C(NCc1ccnnc1)c1cn(CCCCn2cc(C(=O)NCc3cccc(OC(F)(F)F)c3)nn2)nn1` [Example 127, 1-(4-{4-[(pyridazin-4-ylmethyl)carbamoyl]-1H-1,2,3-triazol-1-yl}butyl)-N-{[3-(trifluoromethoxy)phenyl]methyl}-1H-1,2,3-triazole-4-carboxamide], the EC50 in the assay with A549 cells (Homo sapiens, A549, 72 h) is 500 to 5000 nM. In assay [1], the IC50 was 100 to 500 nM.
For `O=C(NCc1cccc(C2CC2)c1)c1cn(CCCCn2cc(C(=O)NCc3cc(C4CC4)ccn3)nn2)nn1` [Example 128, N-[(3-cyclopropylphenyl)methyl]-1-[4-(4-{[(4-cyclopropylpyridin-2-yl)methyl]carbamoyl}-1H-1,2,3-triazol-1-yl)butyl]-1H-1,2,3-triazole-4-carboxamide], in that order: less than 100 nM and less than 100 nM.
Compound `O=C(NCc1cccc(C2CC2)c1)c1cn(CCC(F)Cn2cc(C(=O)NCc3cc(C4CC4)ccn3)nn2)nn1` (stereo not shown) [Example 129, N-[(3-cyclopropylphenyl)methyl]-1-[4-(4-{[(4-cyclopropylpyridin-2-yl)methyl]carbamoyl}-1H-1,2,3-triazol-1-yl)-3-fluorobutyl]-1H-1,2,3-triazole-4-carboxamide] yielded an EC50 with A549 cells (Homo sapiens, A549, 72 h) of less than 100 nM. In addition, the IC50 in assay [1] is less than 100 nM.
`O=C(NCc1cc(C(F)(F)F)ccn1)c1cn(CC(F)CCn2cc(C(=O)N[C@H](CO)c3ccccc3)nn2)nn1` (stereo partly drawn) [Example 130, 1-[2-fluoro-4-(4-{[(1S)-2-hydroxy-1-phenylethyl]carbamoyl}-1H-1,2,3-triazol-1-yl)butyl]-N-1{[4-(trifluoromethyl)pyridin-2-yl]methyl}-1H-1,2,3-triazole-4-carboxamide]: the EC50 in the assay on A549 cells (Homo sapiens, A549, 72 h) was 100 to 500 nM. In addition, the IC50 in assay [1] lay within 100 to 500 nM.
`C[C@@H](NC(=O)c1cn(CCC(F)Cn2cc(C(=O)NCc3cc(C(F)(F)F)ccn3)nn2)nn1)c1ccccc1` (stereo partly drawn) [Example 131, 1-[2-fluoro-4-(4-{[(1R)-1-phenylethyl]carbamoyl}-1H-1,2,3-triazol-1-yl)butyl]-N-{[4-(trifluoromethyl)pyridin-2-yl]methyl}-1H-1,2,3-triazole-4-carboxamide] had an EC50 in the assay on A549 cells (Homo sapiens, A549, 72 h) of 100 to 500 nM. Further, in assay [1], the IC50 lay in the range of 100 to 500 nM.
In the assay on A549 cells (Homo sapiens, A549, 72 h), `O=C(NCc1cccc(OC(F)F)c1)c1cn(CCCCn2cc(C(=O)NCc3cc(C(F)(F)F)ccn3)nn2)nn1` [Example 132, {4-[4-({[3-(difluoromethoxy)phenyl]methyl}carbamoyl)-1H-1,2,3-triazol-1-yl]butyl}-N-{[4-(trifluoromethyl)pyridin-2-yl]methyl}-1H-1,2,3-triazole-4-carboxamide] had an EC50 of less than 100 nM. Further, in assay [1], the IC50 is less than 100 nM.
With `O=C(NCc1cccc(C2CC2)c1)c1cn(CCCCn2cc(C(=O)NCc3cncc(C(F)(F)F)c3)nn2)nn1` [Example 133, 1-[4-(4-{[(3-cyclopropylphenyl)methyl]carbamoyl}-1H-1,2,3-triazol-1-yl)butyl]-N-{[5-(trifluoromethyl)pyridin-3-yl]methyl}-1H-1,2,3-triazole-4-carboxamide], the EC50 with A549 cells (Homo sapiens, A549, 72 h) is less than 100 nM. Also, the IC50 in assay [1] is less than 100 nM.
On to `O=C(NCc1cncc(C(F)(F)F)c1)c1cn(CCCCn2cc(C(=O)NCc3cc(C4CC4)ccn3)nn2)nn1` [Example 135, 1-[4-(4-{[(4-cyclopropylpyridin-2-yl)methyl]carbamoyl}-1H-1,2,3-triazol-1-yl)butyl]-N-{[5-(trifluoromethyl)pyridin-3-yl]methyl}-1H-1,2,3-triazole-4-carboxamide], for which the EC50 in the assay with A549 cells (Homo sapiens, A549, 72 h) is less than 100 nM. In addition, the IC50 in assay [1] is less than 100 nM.
`CC1(C)Oc2ccc(CNC(=O)c3cn(CCCCn4cc(C(=O)NCc5cncc(C(F)(F)F)c5)nn4)nn3)cc2O1` [Example 136, 1-[4-(4-{[(2,2-dimethyl-2H-1,3-benzodioxol-5-yl)methyl]carbamoyl}-1H-1,2,3-triazol-1-yl)butyl]-N-{[5-(trifluoromethyl)pyridin-3-yl]methyl}-1H-1,2,3-triazole-4-carboxamide] returned an EC50 in the assay on A549 cells (Homo sapiens, A549, 72 h) of less than 100 nM. Moreover, the IC50 in assay [1] is less than 100 nM.
Consider `CC1(C)Oc2ccc(CNC(=O)c3cn(CCCCn4cc(C(=O)NCc5cc(C(F)(F)F)ccn5)nn4)nn3)cc2O1` [Example 137, 1-[4-(4-{[(2,2-dimethyl-2H-1,3-benzodioxol-5-yl)methyl]carbamoyl}-1H-1,2,3-triazol-1-yl)butyl]-N-{[4-(trifluoromethyl)pyridin-2-yl]methyl}-1H-1,2,3-triazole-4-carboxamide], for which the EC50 with A549 cells (Homo sapiens, A549, 72 h) was less than 100 nM. Further, in assay [1], the IC50 is less than 100 nM.
Compound `O=C(NCc1cccc(OC(F)(F)F)c1)c1cn(CCCCn2cc(C(=O)NC[C@@H](O)c3ccccc3)nn2)nn1` [Example 138, N-[(2S)-2-hydroxy-2-phenylethyl]-1-{4-[4-({[3-(trifluoromethoxy)phenyl]methyl}carbamoyl)-1H-1,2,3-triazol-1-yl]butyl}-1H-1,2,3-triazole-4-carboxamide] came in with an EC50 with A549 cells (Homo sapiens, A549, 72 h) of 100 to 500 nM. In addition, the IC50 in assay [1] lay in the range of 100 to 500 nM.
The compound `O=C(NCc1cccc(OC(F)(F)F)c1)c1cn(CCCCn2cc(C(=O)NC[C@H](O)c3ccccc3)nn2)nn1` [Example 139, N-[(2R)-2-hydroxy-2-phenylethyl]-1-{4-[4-({[3-(trifluoromethoxy)phenyl]methyl}carbamoyl)-1H-1,2,3-triazol-1-yl]butyl}-1H-1,2,3-triazole-4-carboxamide] yielded a half-maximal effective concentration (EC50) in the assay with A549 cells (Homo sapiens, A549, 72 h) of 100 to 500 nM. Also, the IC50 in assay [1] was in the range of 100 to 500 nM.
